Laboratory results: ChEMBL document CHEMBL1141886, “QSAR study on the antibacterial activity of some sulfa drugs: building blockers of Mannich bases” (2005)

What was measured:
Assay type in all cases: functional
[1] = system: Escherichia coli; assay: Antibacterial activity of compound against Escherichia coli at 20 ug/mL expressed as zone of inhibition
[2] = system: Bacillus subtilis; assay: Antibacterial activity of compound against Bacillus subtilis at 80 ug/mL expressed as zone of inhibition
[3] = system: Klebsiella pneumoniae; assay: Antibacterial activity of compound against Klebsiella pneumoniae at 40 ug/mL expressed as zone of inhibition
[4] = system: Escherichia coli; assay: Antibacterial activity of compound against Escherichia coli at 10 ug/mL expressed as zone of inhibition
[5] = system: Bacillus subtilis; assay: Antibacterial activity of compound against Bacillus subtilis at 10 ug/mL expressed as zone of inhibition
[6] = system: Klebsiella pneumoniae; assay: Antibacterial activity of compound against Klebsiella pneumoniae at 10 ug/mL expressed as zone of inhibition
[7] = system: Escherichia coli; assay: Antibacterial activity of compound against Escherichia coli at 40 ug/mL expressed as zone of inhibition
[8] = system: Klebsiella pneumoniae; assay: Antibacterial activity of compound against Klebsiella pneumoniae at 20 ug/mL expressed as zone of inhibition
[9] = system: Escherichia coli; assay: Antibacterial activity of compound against Escherichia coli at 80 ug/mL expressed as zone of inhibition
[10] = system: Bacillus subtilis; assay: Antibacterial activity of compound against Bacillus subtilis at 40 ug/mL expressed as zone of inhibition
[11] = system: Klebsiella pneumoniae; assay: Antibacterial activity of compound against Klebsiella pneumoniae at 80 ug/mL expressed as zone of inhibition
[12] = system: Bacillus subtilis; assay: Antibacterial activity of compound against Bacillus subtilis at 20 ug/mL expressed as zone of inhibition

**Q.** What does the source list for `Nc1ccc(S(=O)(=O)Nc2ncccn2)cc1` [SULFADIAZINE]?
**A.** Zone of inhibition [1]: 17.2 mm; Zone of inhibition [2]: 25.93 mm; Zone of inhibition [3]: 29.53 mm; Zone of inhibition [4]: 9.7 mm; Zone of inhibition [5]: 20.86 mm; Zone of inhibition [6]: 27.03 mm; Zone of inhibition [7]: 21.2 mm; Zone of inhibition [8]: 29.23 mm; Zone of inhibition [9]: 24.5 mm; Zone of inhibition [10]: 26.36 mm; Zone of inhibition [11]: 25.63 mm; Zone of inhibition [12]: 27.23 mm

**Q.** What does the source list for `Cc1nnc(NS(=O)(=O)c2ccc(N)cc2)s1` [SULFAMETHIZOLE]?
**A.** Zone of inhibition [1]: 17.43 mm; Zone of inhibition [2]: 20.5 mm; Zone of inhibition [3]: 29.6 mm; Zone of inhibition [4]: 16.2 mm; Zone of inhibition [5]: 18.06 mm; Zone of inhibition [6]: 30.3 mm; Zone of inhibition [7]: 22.2 mm; Zone of inhibition [8]: 29.86 mm; Zone of inhibition [9]: 25.5 mm; Zone of inhibition [10]: 19.46 mm; Zone of inhibition [11]: 27.76 mm; Zone of inhibition [12]: 19.13 mm

**Q.** For `Cc1cc(NS(=O)(=O)c2ccc(N)cc2)no1` [SULFAMETHOXAZOLE], which Zone of inhibition [1] is on record?
**A.** 22.93 mm

**Q.** What about the Zone of inhibition [2] of the same compound?
**A.** 27.9 mm

**Q.** What about the Zone of inhibition [3] of the same compound?
**A.** 22.43 mm

**Q.** What about the Zone of inhibition [4] of the same compound?
**A.** 19.63 mm

**Q.** And the Zone of inhibition [5]?
**A.** 22.8 mm

**Q.** What about the Zone of inhibition [6] of the same compound?
**A.** 11.63 mm

**Q.** What about the Zone of inhibition [7] of the same compound?
**A.** 23.23 mm

**Q.** What about the Zone of inhibition [8] of the same compound?
**A.** 14.92 mm

**Q.** And the Zone of inhibition [9]?
**A.** 24.03 mm

**Q.** What about the Zone of inhibition [10] of the same compound?
**A.** 27.43 mm

**Q.** And the Zone of inhibition [11]?
**A.** 26.46 mm

**Q.** And the Zone of inhibition [12]?
**A.** 25.46 mm

**Q.** For `N=C(N)NS(=O)(=O)c1ccc(N)cc1` [SULFAGUANIDINE], which Zone of inhibition [2] is on record?
**A.** 21.76 mm

**Q.** And the Zone of inhibition [5]?
**A.** 11.23 mm

**Q.** And the Zone of inhibition [10]?
**A.** 17.9 mm

**Q.** And the Zone of inhibition [12]?
**A.** 10.9 mm

**Q.** How did the Zone of inhibition [1] turn out when `Nc1ccc(S(N)(=O)=O)cc1` [SULFANILAMIDE] was run?
**A.** 22.3 mm

**Q.** And the Zone of inhibition [4]?
**A.** 20.43 mm

**Q.** What about the Zone of inhibition [7] of the same compound?
**A.** 22.86 mm

**Q.** And the Zone of inhibition [9]?
**A.** 25.55 mm

**Q.** `Cc1cc(C)nc(NS(=O)(=O)c2ccc(N)cc2)n1` [SULFAMETHAZINE] was tested. Which Zone of inhibition [1] did it give?
**A.** 16.9 mm

**Q.** And the Zone of inhibition [2]?
**A.** 22.08 mm

**Q.** And the Zone of inhibition [4]?
**A.** 15.1 mm

**Q.** And the Zone of inhibition [5]?
**A.** 15.4 mm

**Q.** What about the Zone of inhibition [7] of the same compound?
**A.** 18.8 mm

**Q.** What about the Zone of inhibition [9] of the same compound?
**A.** 18.56 mm

**Q.** And the Zone of inhibition [10]?
**A.** 21.76 mm

**Q.** And the Zone of inhibition [12]?
**A.** 19.96 mm
